This is an account of results in patent US20230416329A1, “A PEPTIDE WITH DISULFIDE BONDS AND INHIBITORY ACTIVITY AGAINST SERINE PROTEASES, DERIVED HYBRID PEPTIDES THEREOF, AND USES THEREOF” (INSTITUTE OF MATERIA MEDICA , CHINESE ACADEMY OF MEDICAL …, priority 2020, published 2023).

The subject of test [1] is normal ICR mice. The experiment in a line: In vivo hypoglycemic activity of GLP-1 analogues, subcutaneous administration, oral glucose loading. On the set-up: species or system mouse. As to conditions: normal ICR mice, 1 μmol/kg s.c., glucose 2 g/kg by gavage. On the procedure:
FIG. 21. In vivo hypoglycemic activities of GLP-1 analogues by subcutaneous administration. Normal ICR mice were subcutaneously injected with GLP-1 and its analogues or corresponding volumes of saline (1.0 μmol/kg, n=10). After 30 min, glucose solution (2 g/kg) was administered by gavage, and blood was collected from the tail tip at 30, 60, and 120 min after glucose administration. Blood glucose was measured using glucose oxidase method, and blood glucose values and area under the blood glucose curve (AUC) were calculated at each timepoint.
The day before the experiment, all of the animals were fasted for 15-16 hours with water ad libitum. On the day of the experiment, the animals were randomly divided according to body weight (n=10). Firstly, the blood was collected from the tail tip at 0 hour, and then the animals were administered subcutaneously with GLP-1 analog (SEQ ID NOs: 194-201, 1 μmol/kg) or saline. After 30 minutes, the animals were administered by gavage with glucose solution (2 g/kg), and the blood was collected from the tail tip at 30, 60, and 120 minutes later. Blood glucose was measured using glucose oxidase method. The blood glucose and area under the blood glucose-time curve (AUC) were calculated.

Test [2] has as its system normal ICR mice. Briefly: In vivo hypoglycemic activity of GLP-1 analogues, duodenal administration, oral glucose loading. Further details: species or system mouse. As to conditions: normal ICR mice, 10 μmol/kg duodenal, glucose 2 g/kg by gavage. On the procedure: FIG. 22. In vivo hypoglycemic activities of GLP-1 analogues by duodenal administration. Normal ICR mice were anesthetized with inhalation of ether, and the duodenum was surgically removed and injected with GLP-1 and its analogues or a corresponding volume of saline ([…], n=9-11), and finally the incision was sewed. After 15 min, glucose solution (2 g/kg) was administered by gavage, and blood was collected from the tail tips at 15, 30, and 60 min after glucose administration. Blood glucose was measured using glucose oxidase method, and blood glucose values and area under the blood glucose curve (AUC) were calculated at each timepoint.
Drug delivery technology can use enteric coating technology to achieve oral administration targeting the small intestine. In order to test the feasibility of direct small intestinal administration of GLP-1, the present invention designs duodenal administration. The experimental process is as follows: The day before the experiment, all of the animals were fasted for 15-16 hours with water ad libitum. On the day of the experiment, the animals were randomly divided according to body weight (n=9-11 or 14-15 for combined administration). Firstly, the blood was collected from the tail tip at 0 hours, and then the animals were anesthetized by inhaling ether. A small incision was made near the underside of the stomach using surgical scissors, and the duodenum was carefully removed and administered with GLP-1 analogs (SEQ ID NOs: 194-209, 10 μmol/kg) or saline. Finally, the wound was sutured. After 15 minutes, the glucose solution (2 g/kg) was administered by gavage, and the blood were collected from the tail tips at 15, 30, and 60 minutes after glucose administration. Blood glucose was measured using the glucose oxidase method. The blood glucose at each moment and area under the blood glucose-time curve (AUC) were calculated.
AUC mg×h/dL)=(BG0+BG15)×15/60+(BG15+BG30)×15/60+(BG30+BG60)×30/60. BG0, BG15, BG30, and BG60 represent blood glucose levels at 0, 15, 30, and 60 minutes after glucose loading, respectively.

Regarding “Gly-Gln-Arg-Phe-Ser-Arg-Gly-Gly-His-Ala-Glu-Gly-Thr-Phe-Thr-Ser-Asp-Val-Ser-Ser-Tyr-Leu-Glu-Gly-Gln-Ala-Ala-Lys-Glu-Phe-Ile-Ala-Trp-Leu-Val-Lys-Gly-Arg-Gly-Gly-Lys-Gly-Cys-Gly-Arg-Ala-Thr-Lys-Ser-Ile-Pro-Pro-Ile-Cys-Phe (GQRFSRGGHAEGTFTSDVSSYLEGQAAKEFIAWLVKGRGGKGCGRATKSIPPICF; Synthetic construct N-GLP-1-BT9) [SEQ ID NO: 201]”, in the test on normal ICR mice [1], the “hypoglycemic activity, subcutaneous injection (in words)” value was “significantly reduced the blood glucose levels at 30 and 60 minutes after oral glucose loading and the AUC”. Also, the “hypoglycemic activity, duodenal administration (in words)” value in the test with normal ICR mice [2] is “did not influence the blood glucose levels”.

Turning to “Gly-Arg-Cys-Thr-Lys-Ser-Ile-Pro-Pro-Ile-Cys-Phe-Pro-Gly-Gly-Gln-Arg-Phe-Ser-Arg-Gly-Gly-His-Ala-Glu-Gly-Thr-Phe-Thr-Ser-Asp-Val-Ser-Ser-Tyr-Leu-Glu-Gly-Gln-Ala-Ala-Lys-Glu-Phe-Ile-Ala-Trp-Leu-Val-Lys-Gly-Arg-Gly-Gly-Lys (GRCTKSIPPICFPGGQRFSRGGHAEGTFTSDVSSYLEGQAAKEFIAWLVKGRGGK; Synthetic construct BT1-N-GLP-1) [SEQ ID NO: 195]”, the “hypoglycemic activity, subcutaneous injection (in words)” value in the test with normal ICR mice [1] was “significantly reduced the blood glucose levels at 30 and 60 minutes after oral glucose loading and the AUC”. Further, the “hypoglycemic activity, duodenal administration (in words)” value with normal ICR mice [2] is listed as “did not influence the blood glucose levels”.

Regarding “Cys-Gly-Arg-Ala-Thr-Lys-Ser-Ile-Pro-Pro-Ile-Cys-Phe-Gly-Gly-Gln-Arg-Phe-Ser-Arg-Gly-Gly-His-Ala-Glu-Gly-Thr-Phe-Thr-Ser-Asp-Val-Ser-Ser-Tyr-Leu-Glu-Gly-Gln-Ala-Ala-Lys-Glu-Phe-Ile-Ala-Trp-Leu-Val-Lys-Gly-Arg-Gly-Gly-Lys (CGRATKSIPPICFGGQRFSRGGHAEGTFTSDVSSYLEGQAAKEFIAWLVKGRGGK; Synthetic construct BT9-N-GLP-1) [SEQ ID NO: 199]”, in the test with normal ICR mice [1], the “hypoglycemic activity, subcutaneous injection (in words)” value was “significantly reduced the blood glucose levels at 30 and 60 minutes after oral glucose loading and the AUC”. Besides, the “hypoglycemic activity, duodenal administration (in words)” value in the test on normal ICR mice [2] is “did not influence the blood glucose levels”.

As to “Gly-Gln-Arg-Phe-Ser-Arg-Gly-Gly-His-Ala-Glu-Gly-Thr-Phe-Thr-Ser-Asp-Val-Ser-Ser-Tyr-Leu-Glu-Gly-Gln-Ala-Ala-Lys-Glu-Phe-Ile-Ala-Trp-Leu-Val-Lys-Gly-Arg-Gly-Gly-Lys-Gly-Arg-Cys-Thr-Lys-Ser-Ile-Pro-Pro-Ile-Cys-Phe-Pro (GQRFSRGGHAEGTFTSDVSSYLEGQAAKEFIAWLVKGRGGKGRCTKSIPPICFP; Synthetic construct N-GLP-1-BT1) [SEQ ID NO: 197]”, the “hypoglycemic activity, subcutaneous injection (in words)” value with normal ICR mice [1] was “significantly reduced the blood glucose levels at 30 and 60 minutes after oral glucose loading and the AUC”. For the same substance, the “hypoglycemic activity, duodenal administration (in words)” value with normal ICR mice [2] was “did not influence the blood glucose levels”.
